Assay results published in patent publication US12697340B2, “Compositions and methods for cellular ageing, stress resilience, autophagy, inflammation and longevity” (JUVN3 Holdings, LLC, priority 2018, dated 2026).

Tests used:
Assay type in all cases: cell-based
[1] = test system: 4HNE in C2C12 cells; assay: Oxidative stress (4HNE assay), C2C12 cells; settings: C2C12 cells co-incubated with H2O2, FIG. 6C
Procedure: (§1) Treatments and cells. 6-hour and 24-hour cell culture treatments were with one of the following compounds: 1. Control or “vehicle” (DMSO+phosphate-buffered saline only); 2. Niagen (5 μg/mL); 3. BHB (beta hydroxybutyrate) (30 ug/mL); 4. CBD (cannabidiol) (5 ug/mL); 5. Olive leaf (5 ug/mL); 6. Dynamine (1 ug/mL); 7. Selenium (2 ug/mL); 8. Tributyrin (5 ug/mL)
(§2) Treatment materials and methods. C2C12 cells were treated with compounds 1-8 as listed above for 6 hours without hydrogen peroxide (H2O2) (termed “unperturbed cells” throughout); or cells were treated with compounds 1-8 above for 24 hours with a concomitant 400 uM hydrogen peroxide (H2O2).
Oxidative stress was assessed using the 4HNE assay which is a product of cellular lipid oxidation (see e.g., Am J Physiol Cell Physiol. 2016 Oct. 1; 311(4): C537-0543).
(§3) Western blot analysis was performed using antibodies that detected p-H2AX protein, LC3I, LC3II, 4HNE, and NLRP3 proteins in both the C2C12 and EOMA cells. Ponceau stain was used for protein staining.

[2] = test system: LC3II/I ratio in C2C12 cells; assay: Autophagy flux (LC3II/I ratio), C2C12 cells; settings: 24 hours with 400 uM H2O2, FIG. 6A
Procedure: as §1, §2
Autophagy flux (or activity) was assessed by assaying the LC3II/I ratio. This assay has been deemed the “gold standard” in autophagy monitoring (see e.g., Autophagy, 2007 Nov.-Dec.; 3(6):542-5).
as §3

[3] = test system: C2C12 cells; assay: Total antioxidant capacity (TEAC assay), C2C12 cells with H2O2; settings: C2C12 cells co-incubated with H2O2, FIG. 5B
Procedure: Treatments and cells. 6-hour and 24-hour cell culture treatments were with one of the following compounds: 1. Control or “vehicle” (DMSO+phosphate-buffered saline only); 2. […] (5 μg/mL); 3. BHB (beta hydroxybutyrate) (30 ug/mL); 4. […] Olive leaf (5 ug/mL); 6. Dynamine (1 ug/mL); 7. […] Tributyrin (5 ug/mL) Treatment materials and methods. […] Total antioxidant capacity was assessed using a Trolox equivalent antioxidant capacity (TEAC) assay.

Row | Structure (SMILES) | cellular oxidative stress (4HNE) [1] | autophagy (LC3II/I ratio) [2] | total antioxidant capacity (Trolox) [3] | total antioxidant capacity (Trolox) ([3]; listed as Selenium) | total antioxidant capacity (Trolox) ([3]; listed as Tributyrin)
1 | CC(O)CC(=O)O (stereo not drawn) [BHB, beta hydroxybutyrate] | decrease cellular oxidative stress | increased autophagy |  |  | 
2 | C=C(C)[C@@H]1CCC(C)=C[C@H]1c1c(O)cc(CCCCC)cc1O [CBD, cannabidiol] |  | increased autophagy |  |  | 
3 | [Se] [selenium] |  | increased autophagy | increase (e.g., restore) total antioxidant activity | increase or restore antioxidant capacity | 
4 | CCCC(=O)OCC(COC(=O)CCC)OC(=O)CCC [tributyrin] |  |  | increase (e.g., restore) total antioxidant activity |  | increase or restore antioxidant capacity
